The numbers were not newly measured in patent US6368586B1, “Methods and compositions for enhancing the bioadhesive properties of polymers” (Brown University Research Foundation, priority 1996, dated 2002), which cites them from elsewhere.

Read-outs that look alike come from different tables or passages of the source.

Take `[Al+3]` [Al^3+]: the “Acid Ionization Constants (pKa at 25° C.) for Aqua Ions” value (shortened to “Acid Ionization Constants”) is on record as 4.9.
For `[Ba+2]` [Ba^2+], the “Acid Ionization Constants” value is recorded as 13.2.
For the molecule `[Ca+2]` [Ca^2+], the “Acid Ionization Constants” value was 12.6.
In the case of `[Cu+2]` [Cu^2+], the “Acid Ionization Constants” value is 8.0.
As for `[Fe+2]` [Fe^2+], the “Acid Ionization Constants” value is given as 8.3. For the same molecule, the “Acid Ionization Constants” value (listed as Fe^3+) is 2.2.
With `[Mg+2]` [Mg^2+], the “Acid Ionization Constants” value is given as 11.4.
On to `[Ni+2]` [Ni^2+], for which the “Acid Ionization Constants” value is recorded as 10.6. In addition, the “Acid Ionization Constants” value (listed as Ni^3+) is 9.7.
